Data as given in patent US20240246979A1, “cGAS INHIBITORS” (Eli Lilly and Company, priority 2022, published 2024).

What was measured:
cGAS [1] = target: T1, cGAS (Homo sapiens, UniProt Q8N884); assay: In vitro inhibition assay of cGAS activity (cGAMP production, RapidFire mass spectrometry); type: biochemical; set-up: Insert cDNA encoding full-length of human cGAS; His6; made in house; host or cells: E. coli BL21(DE3); conditions: 10 nM recombinant human cGAS, 60 nM 75-bp dsDNA, 50 μM ATP, 50 μM GTP, 3 hrs
In short: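 Reactions in 10 mM Tris-Cl pH 7.5, 5 mM MgCl2, 0.01% Triton X-100 contained serially diluted compound, 10 nM recombinant cGAS, dsDNA activator and 50 μM each of ATP and GTP, run 3 hrs at ambient temperature. After formic acid quench, cGAMP output was measured by mass spectrometry and percent inhibition versus log concentration was fitted for IC50.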

cGAS [2] = target: T1, cGAS; assay: Cellular assay to measure cGAS activity (IFNb AlphaLISA in THP1 cells stimulated by RDG-Adenovirus-GFP); type: cell-based; set-up: host or cells: THP1 cells differentiated with PMA and stimulated with RDG-Adenovirus-GFP; conditions: PMA-differentiated THP1 cells, RDG-Adenovirus-GFP at 1000 MOI; inhibition of IFNb production as marker for cGAS activity
In short: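 The readout is secreted IFNb measured by AlphaLISA after overnight compound exposure. THP1 cells, differentiated with PMA for 24 h and rested overnight, were infected with RDG-Adenovirus-GFP (1000 MOI, 4 h) before compounds were added; IC50 came from a 4-parameter logistic fit of inhibition against log concentration.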

T1 sequence (Q8N884 whole entry): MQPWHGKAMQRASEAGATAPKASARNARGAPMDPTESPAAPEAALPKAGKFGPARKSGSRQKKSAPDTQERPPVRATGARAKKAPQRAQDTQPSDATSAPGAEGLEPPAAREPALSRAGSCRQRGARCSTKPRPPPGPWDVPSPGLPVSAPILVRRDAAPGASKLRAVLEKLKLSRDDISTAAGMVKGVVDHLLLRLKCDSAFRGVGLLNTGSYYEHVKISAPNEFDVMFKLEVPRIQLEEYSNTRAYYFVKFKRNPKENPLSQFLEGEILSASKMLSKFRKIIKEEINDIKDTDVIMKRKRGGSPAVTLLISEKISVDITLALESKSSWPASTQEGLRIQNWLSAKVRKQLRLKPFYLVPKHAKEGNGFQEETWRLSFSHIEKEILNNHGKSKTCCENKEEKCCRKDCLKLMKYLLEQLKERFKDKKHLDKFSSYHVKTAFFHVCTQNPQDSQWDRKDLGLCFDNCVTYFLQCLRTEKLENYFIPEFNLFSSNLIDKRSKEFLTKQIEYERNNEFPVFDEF

SMILES | IC50 (cGAS [1]) [nM] | IC50 (cGAS [2]) [nM]
N#CCOc1cc(Cl)c(Cl)c2c1c1c3n2CCC3CNC(=O)C1 (stereo not drawn) [Example 115, 2-((8,9-Dichloro-2-oxo-2,3,4,4a, 5,6-hexahydro-1H-azepino[3,4,5-gh]benzo[b]pyrrolizin-11-yl)oxy)acetonitrile] | 22.4 | 1950
CC1C(=O)NCCc2[nH]c3c(Cl)c(Cl)cc(NCCO)c3c21 (single isomer, unassigned) [Example 50, 7,8-Dichloro-10-((2-hydroxyethyl)amino)-1-methyl-3,4,5,6-tetrahydroazepino[4,5-b]indol-2(1H)-one] | 9.62 | 286
C[C@H]1C(=O)NCCc2[nH]c3c(Cl)c(Cl)cc(CC#N)c3c21 (single isomer, unassigned) [Example 89] | 20 | 1130
C[C@@H](O)CNc1cc(Cl)c(Cl)c2[nH]c3c(c12)[C@@H](C)C(=O)NCC3 (single isomer, unassigned) [Example 56] | 3560 | 6230
C[C@H](O)C(=O)Nc1cc(Cl)c(Cl)c2c1c1c(n2C(F)F)CCNC(=O)[C@H]1C (single isomer, unassigned) [Example 142] | 29.6 | 293
CC1C(=O)NCCc2[nH]c3c(Cl)c(Cl)cc(CCCO)c3c21 (stereo not drawn) [Example 88, 7,8-Dichloro-10-(3-hydroxypropyl)-1-methyl-3,4,5,6-tetrahydroazepino[4,5-b]indol-2(1H)-one] | 36.1 | 3230
CCCC1CNC(=O)Cc2c1[nH]c1c(Cl)c(Cl)cc(-c3cnn(C)n3)c21 (stereo not drawn) [Example 164, 7,8-Dichloro-10-(2-methyl-2H-1,2,3-triazol-4-yl)-5-propyl-3,4,5,6-tetrahydroazepino[4,5-b]indol-2(1H)-one] | 18.9 | 1380
CC1C(=O)NCCc2[nH]c3c(Cl)c(Cl)cc(OCC(F)(F)CO)c3c21 (stereo not drawn) [Example 72, 7,8-Dichloro-10-(2,2-difluoro-3-hydroxypropoxy)-1-methyl-3,4,5,6-tetrahydroazepino[4,5-b]indol-2(1H)-one] | 23.3 | 662
Cc1conc1Nc1cc(Cl)c(Cl)c2[nH]c3c(c12)C(C)C(=O)NCC3 (stereo not drawn) [Example 67, 7,8-Dichloro-1-methyl-10-((4-methylisoxazol-3-yl)amino)-3,4,5,6-tetrahydroazepino[4,5-b]indol-2(1H)-one] | 30.6 | 1030
C[C@@H]1C(=O)NCCc2[nH]c3c(Cl)c(Cl)cc(OCc4cocn4)c3c21 (single isomer, unassigned) [Example 178, (S)-7,8-Dichloro-1-methyl-10-(oxazol-4-ylmethoxy)-3,4,5,6-tetrahydroazepino[4,5-b]indol-2(1H)-one or (R)-7,8-dichloro-1-methyl-10-(oxazol-4-ylmethoxy)-3,4,5,6-tetrahydroazepino[4,5-b]indol-2(1H)-one] | 10.8 | 311
C[C@@H]1C(=O)NCCc2c1c1c(NC(=O)CO)cc(Cl)c(Cl)c1n2CC(F)(F)F (single isomer, unassigned) [Example 187, (S)—N-(7,8-Dichloro-1-methyl-2-oxo-6-(2,2,2-trifluoroethyl)-1,2,3,4,5,6-hexahydroazepino[4,5-b]indol-10-yl)-2-hydroxyacetamide or (R)—N-(7,8-Dichloro-1-methyl-2-oxo-6-(2,2,2-trifluoroethyl)-1,2,3,4,5,6-hexahydroazepino[4,5-b]indol-10-yl)-2-hydroxyacetamide] | > 39800 | > 10000
C[C@@H]1C(=O)NCCc2[nH]c3c(Cl)c(Cl)cc(OCCCO)c3c21 (single isomer, unassigned) [Example 14A] | 7.3 | 344
CCNc1cc(Cl)c(Cl)c2[nH]c3c(c12)CC(=O)NCC3 [Example 30, 7,8-Dichloro-10-(ethylamino)-3,4,5,6-tetrahydroazepino[4,5-b]indol-2(1H)-one] | 119 | 3730
CC1C(=O)NCCc2[nH]c3c(Cl)c(Cl)cc(NC4CCOC4)c3c21 (stereo in doubt) [Example 66, 7,8-Dichloro-1-methyl-10-(((R)-tetrahydrofuran-3-yl)amino)-3,4,5,6-tetrahydroazepino[4,5-b]indol-2(1H)-one] | 37.5 | 4150
COCCNc1cc(Cl)c(Cl)c2[nH]c3c(c12)[C@@H](C)C(=O)NCC3 (single isomer, unassigned) [Example 48] | 6490 | > 10000

Continued by falling IC50 (cGAS [1]), values first:

IC50 (cGAS [1]) [nM] | IC50 (cGAS [2]) [nM] | SMILES
4250 | 5660 | C[C@H]1C(=O)NCCc2[nH]c3c(Cl)c(Cl)cc(NCCCO)c3c21 (single isomer, unassigned) [Example 54]
1810 | > 10000 | C[C@@H]1CNC(=O)[C@H](C)c2c1[nH]c1c(Cl)c(Cl)cc(NCCO)c21 (single isomer, unassigned) [Example 156]
109 | 4600 | COCC[C@H]1CNC(=O)Cc2c1[nH]c1c(Cl)c(Cl)cc(-c3cnn(C)n3)c21 (single isomer, unassigned) [Example 168]
44.2 | 1430 | C[C@H](O)COc1cc(Cl)c(Cl)c2[nH]c3c(c12)[C@H](C)C(=O)NCC3 (single isomer, unassigned) [Example 84]
42.2 | 1570 | Cn1ncc(-c2cc(Cl)c(Cl)c3[nH]c4c(c23)CC(=O)NC[C@H]4CC(C)(C)O)n1 (single isomer, unassigned) [Example 104]
40.9 | 1850 | CC1C(=O)NCCc2[nH]c3c(Cl)c(Cl)cc(OC4COC4)c3c21 (stereo not drawn) [Example 183, 7,8-Dichloro-1-methyl-10-(oxetan-3-yloxy)-3,4,5,6-tetrahydroazepino[4,5-b]indol-2(1H)-one]
36 | 5970 | CC(O)COc1cc(Cl)c(Cl)c2[nH]c3c(c12)CC(=O)NCC3 (stereo not drawn) [Example 87, 7,8-Dichloro-10-(2-hydroxypropoxy)-3,4,5,6-tetrahydroazepino[4,5-b]indol-2(1H)-one]
33.3 | 1400 | NC(=O)C(=O)Nc1cc(Cl)c(Cl)c2[nH]c3c(c12)CC(=O)NCC3 [Example 32, N^1-(7,8-Dichloro-2-oxo-1,2,3,4,5,6-hexahydroazepino[4,5-b]indol-10-yl)oxalamide]
27.1 | > 10000 | Cc1noc(-c2cc(Cl)c(Cl)c3[nH]c4c(c23)CC(=O)NCC4)n1 [Example 25, 7,8-Dichloro-10-(3-methyl-1,2,4-oxadiazol-5-yl)-3,4,5,6-tetrahydroazepino[4,5-b]indol-2(1H)-one]
20.4 | 1200 | Nc1noc(-c2cc(Cl)c(Cl)c3[nH]c4c(c23)CC(=O)NCC4)n1 [Example 33, 10-(3-Amino-1,2,4-oxadiazol-5-yl)-7,8-dichloro-3,4,5,6-tetrahydroazepino[4,5-b]indol-2(1H)-one]
19 | 420 | Cn1ncc(-c2cc(Cl)c(Cl)c3[nH]c4c(c23)CC(=O)NCC4CCO)n1 (racemic) [Example 8, 7,8-Dichloro-5-(2-hydroxyethyl)-10-(2-methyl-2H-1,2,3-triazol-4-yl)-3,4,5,6-tetrahydroazepino[4,5-b]indol-2(1H)-one]
14.9 | 498 | C[C@H](O)C(=O)Nc1cc(Cl)c(Cl)c2[nH]c3c(c12)[C@@H](C)C(=O)NCC3 (single isomer, unassigned) [Example 43]
